Values quoted from earlier work as cited in patent US20160101140A1, “Method for Processing Rosaceous Kernels” (priority 2014, published 2016).

System: tumors
Conditions: finding of Sugiura

## N#C[C@H](O[C@@H]1O[C@H](CO[C@@H]2O[C@H](CO)[C@@H](O)[C@H](O)[C@H]2O)[C@@H](O)[C@H](O)[C@H]1O)c1ccccc1 [Vit B17, amygdalin]
  occurrence of a cancer: can inhibit an occurrence of a cancer
  pain caused by the cancer: can lessen the pain caused by the cancer
Background section
  anti-cancer activity: had anti-cancer activity
mice
  inhibition of secondary tumors: inhibited secondary tumors in mice
